Experiments:
[1] = target: Serine/threonine-protein kinase MRCK alpha (Homo sapiens) (UniProt Q5VT25); experiment: Inhibition of human MRCK-alpha assessed as residual activity at 10 uM by kinome selectivity profiling analysis relative to control
[2] = Metabolic stability in human liver microsomes assessed as intrinsic clearance preincubated for 5 mins followed by NADPH addition by LC-MS/MS analysis; format: ADME, Microsome; conditions: read-out: CLH
[3] = Metabolic stability in mouse liver microsomes assessed as half life preincubated for 5 mins followed by NADPH addition by LC-MS/MS analysis; format: ADME, Microsome
SW-620 = experiment: cells; conditions: Homo sapiens
[4] = target: Calcium/calmodulin-dependent protein kinase kinase 2 (Homo sapiens) (UniProt Q96RR4); experiment: Inhibition of human CaMKK2 assessed as residual activity at 10 uM by kinome selectivity profiling analysis relative to control
[5] = Tmax in C57BL/6 mouse at 1 mg/kg, iv measured for 0.5 to 12 htr by LC-MS/MS analysis; format: ADME, organism-based; conditions: in vivo, time 0.5-12 hrs
[6] = MRT (0 to t) in C57BL/6 mouse at 10 mg/kg, po measured for 0.5 to 12 htr by LC-MS/MS analysis; format: ADME, organism-based; conditions: in vivo, time 0.5-12 hrs
Cytochrome P450 3A4 = Cytochrome P450 3A4 (Homo sapiens, UniProt P08684); experiment: Inhibition of CYP3A4 in human liver microsomes using midazolam as substrate preincubated with compound followed by substrate addition measured after 5 mins in presence of NADPH by LC-MS/MS analysis; format: ADME, Microsome
[7] = Metabolic stability in human liver microsomes assessed as half life preincubated for 5 mins followed by NADPH addition by LC-MS/MS analysis; format: ADME, Microsome
[8] = target: Serine/threonine-protein kinase PLK2 (Homo sapiens, UniProt Q9NYY3); experiment: Inhibition of human PLK2 using ATF2 as substrate incubated for 40 mins in presence of [gamma-33P]ATP/Mg acetate by scintillation counting analysis
[9] = Volume of distribution at steady state in C57BL/6 mouse at 1 mg/kg, iv measured for 0.5 to 12 htr by LC-MS/MS analysis; format: ADME, organism-based; conditions: in vivo, time 0.5-12 hrs, read-out: Vdss

Chain of Cytochrome P450 3A4 (P08684 whole entry): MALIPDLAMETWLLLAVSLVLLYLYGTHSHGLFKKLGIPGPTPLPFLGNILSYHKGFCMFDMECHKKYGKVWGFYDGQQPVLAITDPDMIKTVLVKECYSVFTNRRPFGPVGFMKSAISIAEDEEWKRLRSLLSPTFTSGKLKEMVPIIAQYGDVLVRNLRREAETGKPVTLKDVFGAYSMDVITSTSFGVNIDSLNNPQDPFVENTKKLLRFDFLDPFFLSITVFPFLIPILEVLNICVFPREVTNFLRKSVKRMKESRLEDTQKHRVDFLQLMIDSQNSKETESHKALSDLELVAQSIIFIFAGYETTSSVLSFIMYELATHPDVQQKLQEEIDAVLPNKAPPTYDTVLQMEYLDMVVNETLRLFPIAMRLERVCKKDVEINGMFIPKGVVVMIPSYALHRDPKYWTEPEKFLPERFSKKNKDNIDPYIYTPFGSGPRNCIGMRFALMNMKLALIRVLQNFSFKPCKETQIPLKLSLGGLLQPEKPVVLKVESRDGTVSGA
Chain of Calcium/calmodulin-dependent protein kinase kinase 2 (Homo sapiens) (Q96RR4 2-588 limits assumed): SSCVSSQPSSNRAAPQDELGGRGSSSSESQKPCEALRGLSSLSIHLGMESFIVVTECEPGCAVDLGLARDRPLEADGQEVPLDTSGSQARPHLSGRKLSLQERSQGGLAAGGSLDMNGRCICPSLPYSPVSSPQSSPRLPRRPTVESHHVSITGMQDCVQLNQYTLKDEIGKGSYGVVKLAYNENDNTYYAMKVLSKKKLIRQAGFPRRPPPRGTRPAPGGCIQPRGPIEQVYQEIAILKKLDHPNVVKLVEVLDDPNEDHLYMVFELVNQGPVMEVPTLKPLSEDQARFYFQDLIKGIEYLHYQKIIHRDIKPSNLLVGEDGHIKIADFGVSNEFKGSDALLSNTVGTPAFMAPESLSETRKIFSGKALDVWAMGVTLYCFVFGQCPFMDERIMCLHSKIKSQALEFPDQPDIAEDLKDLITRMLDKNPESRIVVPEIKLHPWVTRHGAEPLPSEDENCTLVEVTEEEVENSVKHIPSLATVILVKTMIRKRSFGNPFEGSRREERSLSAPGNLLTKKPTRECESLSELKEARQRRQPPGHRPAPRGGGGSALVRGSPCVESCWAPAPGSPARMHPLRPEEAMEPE
Chain of Serine/threonine-protein kinase MRCK alpha (Homo sapiens) (Q5VT25 whole entry): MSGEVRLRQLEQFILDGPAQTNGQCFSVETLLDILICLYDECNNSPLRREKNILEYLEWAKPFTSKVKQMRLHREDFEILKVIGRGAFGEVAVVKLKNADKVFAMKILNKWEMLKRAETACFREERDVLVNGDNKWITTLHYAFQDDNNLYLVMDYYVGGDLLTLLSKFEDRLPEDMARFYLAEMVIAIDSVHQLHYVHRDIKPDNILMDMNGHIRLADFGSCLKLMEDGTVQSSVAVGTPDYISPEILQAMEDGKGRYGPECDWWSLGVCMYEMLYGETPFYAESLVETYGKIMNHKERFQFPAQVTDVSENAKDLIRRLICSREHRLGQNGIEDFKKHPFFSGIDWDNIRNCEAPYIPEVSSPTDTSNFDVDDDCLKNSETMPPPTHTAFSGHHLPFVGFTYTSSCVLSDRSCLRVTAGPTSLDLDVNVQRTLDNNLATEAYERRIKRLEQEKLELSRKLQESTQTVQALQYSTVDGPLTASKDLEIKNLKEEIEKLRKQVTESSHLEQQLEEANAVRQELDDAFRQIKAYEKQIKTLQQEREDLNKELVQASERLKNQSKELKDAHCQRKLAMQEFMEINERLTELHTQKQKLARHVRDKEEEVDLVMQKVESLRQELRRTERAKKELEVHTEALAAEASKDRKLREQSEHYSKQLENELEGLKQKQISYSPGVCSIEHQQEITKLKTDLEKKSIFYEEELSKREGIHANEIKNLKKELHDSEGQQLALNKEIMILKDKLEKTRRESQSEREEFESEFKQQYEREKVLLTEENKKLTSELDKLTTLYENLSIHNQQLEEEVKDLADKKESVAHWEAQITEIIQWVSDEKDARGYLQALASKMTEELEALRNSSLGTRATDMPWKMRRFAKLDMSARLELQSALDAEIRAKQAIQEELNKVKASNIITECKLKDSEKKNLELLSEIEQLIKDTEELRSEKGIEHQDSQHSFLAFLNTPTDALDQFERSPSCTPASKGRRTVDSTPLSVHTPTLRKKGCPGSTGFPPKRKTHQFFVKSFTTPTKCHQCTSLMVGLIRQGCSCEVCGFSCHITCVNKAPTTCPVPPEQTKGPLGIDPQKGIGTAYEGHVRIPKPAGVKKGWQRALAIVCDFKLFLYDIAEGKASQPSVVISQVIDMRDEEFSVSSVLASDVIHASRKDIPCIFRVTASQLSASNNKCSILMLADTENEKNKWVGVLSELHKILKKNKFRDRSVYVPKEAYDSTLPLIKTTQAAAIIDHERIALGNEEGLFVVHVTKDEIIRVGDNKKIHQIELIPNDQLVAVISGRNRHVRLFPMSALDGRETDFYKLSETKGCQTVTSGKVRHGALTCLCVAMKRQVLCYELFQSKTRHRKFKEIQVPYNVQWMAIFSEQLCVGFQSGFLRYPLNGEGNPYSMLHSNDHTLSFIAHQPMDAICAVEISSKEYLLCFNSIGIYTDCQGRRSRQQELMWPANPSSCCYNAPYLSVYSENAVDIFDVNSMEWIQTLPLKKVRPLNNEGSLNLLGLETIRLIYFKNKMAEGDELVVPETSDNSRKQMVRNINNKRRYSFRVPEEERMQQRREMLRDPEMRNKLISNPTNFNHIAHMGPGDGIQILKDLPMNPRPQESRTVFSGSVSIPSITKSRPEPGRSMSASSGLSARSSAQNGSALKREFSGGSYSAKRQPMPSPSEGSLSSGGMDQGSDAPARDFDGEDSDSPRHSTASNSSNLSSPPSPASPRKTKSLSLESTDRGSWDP
Chain of Serine/threonine-protein kinase PLK2 (Q9NYY3 whole entry): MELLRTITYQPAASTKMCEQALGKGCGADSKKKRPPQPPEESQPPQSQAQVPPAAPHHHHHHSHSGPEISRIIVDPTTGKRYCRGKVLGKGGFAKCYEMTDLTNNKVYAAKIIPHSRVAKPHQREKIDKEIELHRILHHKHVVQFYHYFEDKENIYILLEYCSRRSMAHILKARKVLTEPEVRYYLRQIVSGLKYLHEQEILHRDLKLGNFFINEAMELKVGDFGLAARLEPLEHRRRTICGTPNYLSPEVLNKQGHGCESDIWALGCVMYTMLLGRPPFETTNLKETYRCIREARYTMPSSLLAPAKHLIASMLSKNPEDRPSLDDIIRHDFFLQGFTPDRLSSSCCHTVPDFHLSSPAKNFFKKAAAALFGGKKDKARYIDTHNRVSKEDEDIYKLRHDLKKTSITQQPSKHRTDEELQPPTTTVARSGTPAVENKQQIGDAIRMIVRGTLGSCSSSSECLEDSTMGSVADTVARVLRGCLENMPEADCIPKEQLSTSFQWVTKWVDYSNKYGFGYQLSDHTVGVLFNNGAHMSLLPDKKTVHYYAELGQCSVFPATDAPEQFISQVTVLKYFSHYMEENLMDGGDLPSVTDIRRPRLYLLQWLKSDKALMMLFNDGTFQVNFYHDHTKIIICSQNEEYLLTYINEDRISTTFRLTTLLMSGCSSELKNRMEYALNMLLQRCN

## CC[C@@H]1C(=O)N(C)c2cnc(Nc3cc(N4CCN(C)CC4)cc(Cl)c3OCCCO)nc2N1C1CCCC1
[1]
  Activity: 129%
[2]
  CLint scaled: 85.6 mL/min/kg
[3]
  half-life: 16.6 min
SW-620
  IC50: 0.0082 µM
[4]
  Activity: 73%
[5]
  Tmax: 4.98 min
[6]
  MRT last: 120 min
Cytochrome P450 3A4
  IC50: > 10 µM
[7]
  half-life: 30.3 min
[8]
  IC50: > 10 µM
[9]
  Vd: 3.6 L/kg

From ChEMBL document CHEMBL6153147 (J Med Chem, 2025)
